Results reported in article PMC5933261, “A phase 1 dose-escalation study of veliparib with bimonthly FOLFIRI in patients with advanced solid tumours” (British Journal of Cancer, 2018).

Experiments:
[1] = Pharmacokinetics of FOLFIRI components with and without veliparib (relative bioavailability); conditions: cycle 1 day 15 vs cycle 1 day 1
Protocol: Treatment-emergent adverse events (TEAEs) were assessed from the time of study drug administration until 30 days following discontinuation of study drug. TEAEs were assessed according to the National Cancer Institute Common Terminology Criteria for Adverse Events version 4.0. In dose-escalation cohorts, blood samples were collected on day 15 of cycle 1 for veliparib PK, and on days 1 and 15 of cycle 1 for PK assessment of the FOLFIRI components irinotecan, SN-38, folinic acid (leucovorin), and 5-FU. Exploratory efficacy end points included objective response rate (ORR), time to disease progression (TTP), duration of overall response (DOR), and ECOG performance status. Objective response rate included confirmed complete response (CR) and partial response (PR). Objective response rate evaluation was based on Response Evaluation Criteria in Solid Tumours version 1.1. Objective response rate was calculated for all patients with one or more measurable lesions at baseline. Time to disease progression was defined as the number of days from the date the patient started study drug to the date of the patient’s disease progression. Duration of overall response was defined as the number of days from the day criteria were met for CR or PR (whichever was recorded first) to the date that PD was objectively documented. If a patient was still responding, the patient’s data were censored at the date of the last study visit at which a tumour assessment was performed. Analyses of change and/or percentage change from baseline for tumour size were performed for each scheduled post-baseline visit and for the final visit. ECOG performance status was assessed at all visits, with descriptive statistics summarised for each assessment. In addition, a mean change from baseline to each assessment time was summarised.
The sample size was based on clinical justification. No specific statistical hypothesis tests were planned, with descriptive statistics used for the analysis of safety, PK, and tumour response data. The study population for all safety and preliminary efficacy analyses included patients who received one or more doses of study medication. Data from parts 1–3 of the dose-escalation cohort were combined for assessment of the effect of veliparib on the PK of irinotecan, SN-38, and folinic acid. Linear mixed effects models were performed on natural logarithmically transformed maximum plasma concentration (Cmax) and area under the plasma or serum concentration-time curve (AUC) to compare exposure of irinotecan, SN-38, and folinic acid with and without the administration of veliparib. Point estimates and the corresponding 90% confidence intervals (CIs) of the ratio of central values with and without veliparib administration were calculated.

[2] = tested on: patients with advanced solid tumours
Source text: This phase 1 open-label, multicentre, dose-escalation, and safety expansion study evaluated veliparib in combination with bimonthly FOLFIRI in patients with advanced solid tumours. The primary objectives were to determine the maximum tolerated dose (MTD) and establish the recommended phase 2 dose (RP2D) of the combination therapy. Secondary objectives were to assess the safety and tolerability, PK profile, and exploratory efficacy of the combination for each of the FOLFIRI regimens. Patients received veliparib and bimonthly FOLFIRI in 28-day cycles. Veliparib was administered on days 15–19 in cycle 1 and on days 1–5 and 15–19 in subsequent cycles (Fig. 1). Patients with stable disease or better status could continue veliparib and bimonthly FOLFIRI at the investigator’s discretion until progressive disease (PD), unacceptable toxicity, or FOLFIRI discontinuation. The trial was registered with the ClinicalTrials.gov registry (NCT01123876) and was approved by appropriate independent ethics committees/institutional review boards prior to initiation. The study was performed in accordance with the 1964 Declaration of Helsinki and its later amendments. Written informed consent was obtained from all patients before study enrollment.
Dose escalation occurred in three parts to evaluate the MTD/RP2D of three different bimonthly FOLFIRI regimens in combination with veliparib (Fig. 1). A minimum of three patients per dose level were included for dose-toxicity modeling. In part 1, dose escalation began with veliparib twice daily (BID) on days 15–19 of cycle 1 (to allow the determination of single-agent PK for irinotecan, the active metabolite of irinotecan (SN-38), folinic acid, and 5-FU on cycle 1 day 1). In parts 2 and 3, dose escalation began with veliparib BID on day 15 of cycle 1. The differences in the dosing schedules of parts 1, 2, and 3 relate to dosing of irinotecan and 5-FU, and are detailed in Fig. 1. In all parts, veliparib continued to be administered on days 1–5 and 15–19 of each subsequent 28-day cycle. […]

In the case of C[C@]1(c2nc3c(C(N)=O)cccc3[nH]2)CCCN1 [veliparib, Veliparib], the “Effect of veliparib on the pharmacokinetics of FOLFIRI components” value [1] is reported as “no significant effect”, the “Effect of veliparib on the pharmacokinetics of FOLFIRI components” value ([1]; listed as Veliparib) is reported as “no effect” and the “Recommended phase 2 dose (RP2D) of veliparib” value ([2]; human, in vivo) is reported as 200 mg BID. The “Maximum tolerated dose (MTD)” value ([2]; veliparib 10–270 mg BID plus FOLFIRI, Bayesian CRM) was “not reached”.
